Data published in patent US20070275382A1, “Biomarkers for the Efficacy of Somatostatin Analogue Treatment” (priority 2003, published 2007).
*1 amine or outer side, *2 acyl side, *3 side chain or, on linkers, in order; H or OH if unused. Where a SMILES comes first, the peptide text is derived from it. Side-chain parts run from the residue outwards. [ ]: non-standard residue; d: D form. The star is where a group is joined. Ethylenediamine = C(CN[*:2])N[*:1]; Hyp = O=C(O)[CH]1C[CH](O)CN1; Phg = N[CH](C(=O)O)c1ccccc1; CO = O=C([*:1])[*:2]; Bn = c1ccc(C*)cc1

Tests used:
Pancreas = experiment: Microarray gene expression profiling (HG-U95A), pancreas; format: in vivo, cynomolgus monkeys
Protocol: (§1) Origin of tissue and processing. Male and female cynomolgus monkeys received subcutaneously pasireotide (100 μg/animal/day) or the vehicle for 14 days. On day 15, all animals were sacrificed and tissues for RNA extraction were immediately snap-frozen and kept at −80° C. until processing.
(§2) RNA expression profiling was conducted by means of the HG-U95A gene expression probe array (Affymetrix; Santa Clara, Calif. USA), containing more than 12,600 probe sets interrogating primarily full-length human genes and also some control probe sets. The experiment was conducted according to the recommendations of the manufacturer. Briefly, total RNA was obtained by acid guanidinium thiocyanate-phenol-chloroform extraction (Trizol®, Invitrogen Life Technologies, San Diego, Calif. USA) from each frozen tissue section. The total RNA was then purified on an affinity resin (Rneasy®, Qiagen) and quantified. Double stranded cDNA was synthesized with a starting amount of approximately 5 μg full-length total RNA using the Superscript® Choice System (Invitrogen Life Technologies, Carlsbad, Calif. USA) in the presence of a T7-(dT)24 DNA oligonucleotide primer. Following synthesis, the cDNA was purified by phenol/chloroform/isoamyl alcohol extraction and ethanol precipitation. The purified cDNA was then transcribed in vitro using the BioArray® High Yield RNA Transcript Labeling Kit (ENZO, Farmingdale, N.Y. USA) in the presence of biotinylated ribonucleotides form biotin labelled cRNA. The labelled cRNA was then purified on an affinity resin (Rneasy®, Qiagen), quantified and fragmented. An amount of approximately 10 μg labelled cRNA was hybridized for 16 hours at 45° C. to an expression probe array. The array was then washed and stained twice with streptavidin-phycoerythrin (Molecular Probes,) using the GeneChip® Fluidics Workstation 400 (Affymetrix, Santa Clara, Calif. USA). The array was then scanned twice using a confocal laser scanner (GeneArray® Scanner, Agilent, Palo Alto, Calif. USA) resulting in one scanned image. This resulting “.dat-file” was processed using the MAS4 program (Affymetrix) into a “.cel-file”. The “.cel file” was captured and loaded into the Affymetrix GeneChip® Laboratory Information Management System (LIMS). The LIMS database is connected to a UNIX Sun Solaris server through a network filing system that allows for the average intensities for all probes cells (CEL file) to be downloaded into an Oracle database (NPGN). Raw data was converted to expression levels using a “target intensity” of 150. The data were evaluated for quality control and loaded in the GeneSpring® software 4.2.4 (Silicon Genetics, Calif. USA) for analysis.
(§3) On the human Affymetrix HGU95Av2 chip, probe sets for individual genes contain 20 oligonucleotide pairs, each composed of a “perfect match” 25-mer and a “mismatch” 25-mer differing from the “perfect” match oligonucleotide at a single base. After probe labelling, hybridization, and laser scanning, the expression level was estimated by averaging the differences in signal intensity measured by oligonucleotide pairs of a given probe (AvgDiff value). The fold changes and directions were calculated for selected genes, from the differences of the AvgDiff values between controls and treated.
(§4) To identify genes that were impacted by pasireotide, the dataset was initially filtered to exclude in a first wave of analysis, genes whose values were systematically in the lower expression ranges where the experimental noise is high (at least 80 in a number of experiments corresponding to the smallest number of replicas of any experimental point). In a second round of selection a threshold p-value of 0.05 (based on a t-test) identified differences between treated and control based on a two component error model (Global Error Model) and, whenever possible, with a stepdown correction for multi-hypothesis testing (Benjamini and Hochberg false discovery rate). […]

Kidney = experiment: Microarray gene expression profiling (HG-U95A), kidney; format: in vivo, cynomolgus monkeys
Protocol: as §1, §2, §3, §4

[1] = ↑ vs control, 100 μg/animal/day s.c., 14 days
[2] = ↓ vs control, 100 μg/animal/day s.c., 14 days
[3] = ↑ increase, treated vs controls
[4] = ↓ decrease, treated vs controls

## NCCCCC1NC(=O)C(Cc2c[nH]c3ccccc23)NC(=O)C(c2ccccc2)NC(=O)C2CC(OC(=O)NCCN)CN2C(=O)C(Cc2ccccc2)NC(=O)C(Cc2ccc(OCc3ccccc3)cc2)NC1=O (stereo not drawn) [Pasireotide, cyclo[4-(NH2—C2H4—NH—CO—O)Pro-Phg-DTrp-Lys-Tyr(4-Bzl)-Phe]] (cyclo(F[Hyp]([CO-Ethylenediamine])[Phg]WKY(Bn)); configuration not given here)
Pancreas; 0.1 mg/animal/14day
  IGF-1 expression level, AvgDiff (range): 89 (20 to 298)
  SSTR2 expression level, AvgDiff (range): 156 (120 to 210)
Pancreas; [1]
  Cdki 1C transcript fold change: Cdki 1C ↑ x2
  Chymotrypsin-like transcript fold change: ↑ x3.5
  Cyclin D1 transcript fold change: Cyclin D1 ↑ x2
  GLUR precursor, flip isoform transcript fold change: flip isoform ↑ x3
  IFN regulatory factor 3 transcript fold change: factor 3 ↑ x5
  IGF-1 transcript fold change: IGF-1 ↑ x4.5
  IP-1-phosphatase transcript fold change: ↑ x2.5
  Integrin α 2b precursor transcript fold change: precursor ↑ x1.5
  Na+ channel, voltage-gated, type 1, β polypeptide transcript fold change: ↑ x2
  PDGFR α transcript fold change: PDGFR α ↑ x2.5
  PDGFR, α polypeptide transcript fold change: ↑ x1.5
  PI-4-kinase, catalytic, α polypeptide transcript fold change: α polypeptide ↑ x1.5
  PL A2, group IVC (cytosolic, calcium-independent) transcript fold change: independent) ↑ x1.5
  Prostacyclin synthase transcript fold change: synthase ↑ x2
  THR interactor 10 transcript fold change: ↑ x2.5
  Thrombospondin 2 transcript fold change: ↑ x3.5
Pancreas; [2]
  BCL2/adenovirus E1B 19 kD-intracting protein 1, isoform BNIP1-a transcript fold change: BNIP1-a ↓ x1.5
  CRHR 1 transcript fold change: CRHR 1 ↓ x2
  Ca++ channel, voltage dependent, α 1F subunit transcript fold change: ↓ x4.5
  Cyclin T2 transcript fold change: Cyclin T2 ↓ x2
  G-CSF protein transcript fold change: ↓ x2
  Gastrin-releasing peptide receptor transcript fold change: ↓ x5
  IL 1 receptor antagonist transcript fold change: antagonist↓ x2
  K+ voltage-gated channel, KQT-like subfamily, member3 transcript fold change: ↓ x2.5
  Neuro-blastoma apoptosis-related RNA binding protein transcript fold change: protein ↓ x3
  Phosphotyrosine independent ligand p62B for the Lck SH2 domain B-cell isoform transcript fold change: isoform ↓ x2
  Smad 3 transcript fold change: Smad 3 ↓ x1.5
  THR binding protein transcript fold change: protein ↓ x2
Kidney; 0.1 mg/animal/14day
  IGF-1 expression level, AvgDiff (range): 25 (20 to 39)
  IGFBP2 expression level, AvgDiff (range): 563 (457 to 655)
  IR expression level, AvgDiff (range): 196 (163 to 265)
  SSTR2 expression level, AvgDiff (range): 126 (93 to 158)
  SSTR3 expression level, AvgDiff (range): 82 (33 to 120)
Kidney; [3]
  Adrenomedullin RNA expression fold change: ↑ x1.5
  Arginine vasopressin (neurophysin II, antidiuretic hormone, diabetes insipidus, neurohypophyseal) RNA expression fold change: ↑ x2
  CDC37 (cell division cycle 37, S. cerevisiae, homolog) RNA expression fold change: homolog) ↑ x1.5
  CSF-1 receptor, formerly McDonough feline sarcoma viral (v-fms) oncogene homolog RNA expression fold change: homolog ↑ x2.5
  Ca++ channel, voltage-dependent, α 1H subunit RNA expression fold change: subunit ↑ x2
  Calcium/calmodulin-dependent protein kinase kinase 2, β RNA expression fold change: ↑ x1.5
  Cdk 5, regulatory subunit 2 (p39) RNA expression fold change: ↑ x1.5
  Cdki 1A (p21, Cip 1) RNA expression fold change: Cip 1) ↑ x5
  Corticotropin releasing hormone receptor type 2 beta isoform RNA expression fold change: ↑ x1.5
  Dopamine receptor D2 RNA expression fold change: ↑ x4.5
  Fas/Apo-1/CD95 RNA expression fold change: ↑ x1.5
  GABA (A) receptor, γ2 precursor RNA expression fold change: precursor ↑ x2
  GFR-bound protein 7 RNA expression fold change: protein 7 ↑ x2
  GFR-bound protein 14 RNA expression fold change: protein 14 ↑ x2
  Growth arrest-specific 6 RNA expression fold change: specific 6 ↑ x1.5
  IGFBP2 RNA expression fold change: IGFBP2 ↑ x1.5
  IL-7 R precursor RNA expression fold change: ↑ x2
  IRF5 RNA expression fold change: IRF5 ↑ x2
  K+ voltage-gated channel, Shaw-related subfamily, member 3 RNA expression fold change: member 3 ↑ x2.5
  LIF (cholinergic differentiation factor) RNA expression fold change: factor) ↑ x2
  Natriuretic peptide receptor A/guanylate cyclase A (atrionatriuretic peptide receptor A) RNA expression fold change: A) ↑ x2
  Opioid receptor, δ1 RNA expression fold change: δ1 ↑ x2.5
  PDGFR, α polypeptide RNA expression fold change: polypeptide ↑ x1.5
  Putative chemokine receptor; GTP-binding protein RNA expression fold change: ↑ x2
  SSTR2 RNA expression fold change: SSTR 2↑ x2
  SSTR 3 RNA expression fold change: SSTR 3↑ x3
  Solute carrier family 9 (Na+/H+ exchanger) isoform 3 regulatory factor 1 RNA expression fold change: ↑ x2
  TGF, β1 RNA expression fold change: TGF, β 1 ↑ x1.5
  THR binding protein RNA expression fold change: protein ↑x1.5
  THR, α (avian erythroblastic leukaemia viral (v-erb-a) oncogene homolog) RNA expression fold change: homolog) ↑x1.5
  TNFR superfamily, member 12 RNA expression fold change: ↑ x2
  VWF precursor RNA expression fold change: precursor ↑ x2
  δ sleep inducing peptide, immunoreactor RNA expression fold change: x2.5
Kidney; [4]
  Acetylserotonin O-methyl transferase-like RNA expression fold change: ↓ x3
  Angiotensin receptor 1B RNA expression fold change: 1B ↓ x1.5
  Calmodulin 3 (phosphorrylase kinase, δ) RNA expression fold change: ↓ x1.5
  Cdk (CDC2-like) RNA expression fold change: ↓ x2
  Death effecter domain-containing RNA expression fold change: ↓ x3.5
  Glucocorticoid receptor DNA binding factor 1 RNA expression fold change: ↓ x4.5
  Glutamate receptor, metabotropic 2 precursor RNA expression fold change: precursor ↓ x3
  IGF-1 RNA expression fold change: IGF-1 ↓ x2.5
  IGF-2 RNA expression fold change: IGF-2 ↓ x2
  Insulin receptor RNA expression fold change: ↓ x3
  Na+ channel, nonvoltage-gated 1, β (Liddle syndrome) RNA expression fold change: syndrome) ↓ x2
  PG-endoperoxide synthase 1 (prostaglandin G/H synthase and cyclooxygenase) RNA expression fold change: ↓ x3.5
  PI-3-kinase, catalytic, α polypeptide RNA expression fold change: polypeptide ↓ x3
  PP 3 (formerly 2B), catalytic subunit, β isoform (calcineurin A β) RNA expression fold change: A β) ↓ x2
  Solute carrier family 6 (neurotransmitter transporter, creatin), member 8 RNA expression fold change: ↓ x3
  THR-associated protein, 240kδ subunit RNA expression fold change: subunit ↓ x1.5
  TNF, α-induced protein 3 RNA expression fold change: ↓ x1.5
  Vasopressin-activated calcium-mobilizing receptor-1 RNA expression fold change: receptor-1 ↓ x2
